Reference: ChEMBL document CHEMBL4765300, “Discovery of a chiral fluorinated azetidin-2-one as a tubulin polymerisation inhibitor with potent antitumour efficacy” (Eur J Med Chem, 2020)
In brackets after ≈: the same amount, converted by molar mass.

How the values were obtained:
[1] = Intrinsic clearance in human liver microsomes at 10 uM incubated for 60 mins in presence of NADPH by LC/MS/MS analysis; type: ADME, Microsome; settings: read-out: CLH
[2] = Metabolic stability in human liver microsomes assessed as parent compound remaining at 10 uM measured after 30 mins in presence of NADPH by LC/MS/MS analysis; type: ADME, Microsome; settings: read-out: Stabilty
[3] = Metabolic stability in human liver microsomes assessed as parent compound remaining at 10 uM measured after 60 mins in presence of NADPH by LC/MS/MS analysis; type: ADME, Microsome; settings: read-out: Stabilty
[4] = Metabolic stability in human liver microsomes assessed as parent compound remaining at 10 uM measured after 20 mins in presence of NADPH by LC/MS/MS analysis; type: ADME, Microsome; settings: read-out: Stabilty
[5] = Metabolic stability in human liver microsomes assessed as parent compound remaining at 10 uM measured after 5 mins in presence of NADPH by LC/MS/MS analysis; type: ADME, Microsome; settings: read-out: Stabilty
physchem = settings: phosphate buffer, pH 7.4
[6] = Half life in human liver microsomes at 10 uM in presence of NADPH by LC/MS/MS analysis; type: ADME, Microsome
[7] = Metabolic stability in human liver microsomes assessed as parent compound remaining at 10 uM measured after 10 mins in presence of NADPH by LC/MS/MS analysis; type: ADME, Microsome; settings: read-out: Stabilty

Row | SMILES | CLint scaled at 10 µM [1] [mL/min/kg] | remaining at 0.5 h, 10 µM [2] [%] | remaining at 1 h, 10 µM [3] [%] | remaining at 20 min, 10 µM [4] [%] | remaining at 5 min, 10 µM [5] [%] | solubility at 10 min (physchem) [µg/mL] | half-life at 10 µM [6] [min] | remaining at 10 min, 10 µM [7] [%]
1 | COc1ccc([C@H]2[C@H](CF)C(=O)N2c2cc(OC)c(OC)c(OC)c2)cc1O | < 8.6 | 90.9 | 73 | 88.4 | 85.6 | 41.1 (≈ 105 µM) | > 145 | 91.6
2 | COc1ccc(/C=C\c2cc(OC)c(OC)c(OC)c2)cc1O [COMBRETASTATIN A4] | 89.5 | 17.5 | 5.2 | 37.2 | 74.1 | 1.04 (≈ 3.29 µM) | 13.9 | 57.1
